Entries after “also recorded” stand apart in the source; their conditions may differ. Structures can show the parent of a compound that is named as a salt.
Columns and labels:
[1] = test system: airway smooth muscle (ASM) in tracheal rings from OVA sensitized/challenged mice; test: Inhibition of acetylcholine-induced ASM contraction in tracheal rings (ex vivo myography, 30 min pretreatment); parameters: species or system BALB/c mice; conditions: for ASM contraction to acetylcholine: isolated compound at 6.0 μg/ml, FIG. 6A/6B; for ASM contraction to acetylcholine / Ach-induced contraction (10-4 M Ach, percent of 60 mM KCL): 30 min pretreatment; for Ach-induced contraction (10-4 M Ach, percent of 60 mM KCL): 10 μg/ml (Matrine 40 μM, Sophocarpine 40 μM, Oxymatrine 37 μM); for Ach-induced contraction (10-4 M Ach, percent of 60 mM KCL) / relative potency among the matrine type alkaloids: FIGS. 12, 13; for relative potency among the matrine type alkaloids: 10 μg/ml
Description: To determine which herbal constituents in ASHMI™ have a direct inhibitory effect on ASM contraction, an asthmatic mouse model was induced by ovalbumin (OVA) sensitization and challenge as described previously (Zhang et al., 2010). Tracheal rings from asthmatic mice were treated with an aq. extract of ASHMI™ (100 μg/ml), or individual herb aq. extracts, G. lucidum (35 μg/ml), S. flavescens (45 μg/ml) and G. uralenisis (20 μg/ml), for 30 min prior to ex vivo acetylcholine provocation. The ASHMI™ concentration was based on our previous publication (Zhang et al., 2010). Concentrations of individual herb extracts were equivalent to their individual concentrations in ASHMI™.
Balb/c mice were sensitized by intraperitoneal (i.p.) injection of 200 μg OVA plus 2 mg of aluminum hydroxide (alum) in 400 μl of PBS on days 0 and 7. Mice were challenged intratracheally (i.t.) with 100 μg of OVA in 50 μl of PBS weekly for 2 weeks (days 14 and 21). Mice were challenged i.t. once daily with 100 μg of OVA (50 μl) on 2 consecutive days (days 28 and 29) 48 hr before sacrifice and tissue harvesting.
Forty-eight hrs after the last i.t. OVA challenge, mice were sacrificed and tracheas were excised and cut into 3 tracheal rings as previously described. Each tracheal ring was attached to a pair of mounting pins in the organ chamber of a Myograph System Model 610M system (AD Instruments, Denver, Colo.) and bathed in a chamber containing physiological salt solution (PSS (In g/L—NaCl: 6.95, KCl: 0.35, MgSO4.7H2O: 0.28, KH2PO4: 0.1561, CaCl2.2H2O: 0.36, NaHCO3: 2.1, EDTA: 0.01, Glucose: 1.09, pH=7.4). All chambers were maintained at 37° C. and were continuously bubbled with 100% 02. The change of tracheal ring tension was recorded by Power Lab Chart recording software (AD Instruments). After incubation at 37° C. for 15 min at baseline tension, passive tension applied to the tracheal ring was adjusted to 1.00 mN. Following stabilization of passive tension, tracheal rings were contracted using 60 mM KCl twice, to assess ASM contractility. Tracheal rings were washed with PSS buffer 3 times and allowed to rest at 1.00 mN for 30 min after each stimulation. The individual compounds as indicated in FIG. 14 were dissolved in DMSO and then re-suspended in PBS (DMSO <0.1%). Each drug was added to the chamber at the concentrations indicated and the pre-incubation time was 30 min. Tracheal rings were then contracted with incremental doses of acetylcholine (from 10^-8 M to 10^-4 M). PBS (vehicle) treatment was used as control.

[2] = test system: tracheal tissue (rings); test: Tracheal ring viability: contractile response to KCl after washout; parameters: species or system mouse; conditions: 10 μg/ml
Description: FIG. 12. Representative real time tracing of murine tracheal ring contractions. Rings were first stimulated with 60 mM KCL to assess contractile potential. Compounds (Matrine (40 μM), Oxymatrine (37 μM), sophocarpine (40 μM) or PSS (vehicle) were added 30 minutes prior to stimulation with 10^-4 M Ach. Ring viability was tested 90 minutes after Ach washout.
We first generated a methylene chloride (MC) extract from an aq. extract of S. flavescens to obtain a flavonoid rich extract (designated MC extract, FIG. 2). […] We next generated 5 sub-fractions (MC-F1, 2, 3, 4 and 5) using preparative HPLC and tested each at 6.0 μg/ml. […] The inhibition of ASM contraction by MC-F1 was concentration-dependent (FIG. 4B) and non-toxic as contractile responses to KCl were present after buffer washings (FIG. 4C).
Having observed that Fraction 3 of S. flavescens was a potent inhibitor of Ach-stimulated tracheal contraction we tested major compounds present in this fraction in myography experiments. According to investigations using mass spectrometric techniques, the major compounds identified in SF Fraction 3 were the matrine type alkaloids-Matrine, Oxymatrine and Sophocarpine.

[3] = test system: acetylcholine pre-contracted sensitized murine tracheal rings (ASM); test: Relaxation of acetylcholine pre-contracted tracheal rings; parameters: species or system mouse; conditions: for effect of co-incubation with β2-AR antagonist ICI 118,551 on relaxation: FIG. 7A/7B
Description: FIGS. 7A-7C. Relaxation effects of trifolirhizin or the β2-AR agonist fenoterol on acetylcholine pre-contracted ASM. (A). The relaxation effect of trifolirhizin on acetylcholine-stimulated tracheal rings with or without ICI 118,551 (ICI). (B). The relaxation effect of the β2-AR agonist fenoterol on acetylcholine-contracted tracheal rings with or without ICI 118,551; Relaxation is expressed as the percent of residual contractile tone remaining at 15 min after trifolirhizin or fenoterol addition. (C). Representative myography tracings of relaxation experiment using fenoterol (upper tracing), PBS control (middle tracing) or trifolirhizin- (lower tracing) treated sensitized mouse tracheal rings (***, p≤0.001 compared to PBS control). Note the magnitude of total relaxation achieved with trifolirhizin compared to the β2-AR agonist fenoterol.
The primary therapy for acute constriction of airway smooth muscle is β2-AR agonists which are inhaled for the acute relaxation of hyperresponsive airway smooth muscle. We performed studies with trifolirhizin to determine whether it could relax pre-contracted airway smooth muscle and how the magnitude of relaxation compared to a classic β2-AR agonist fenoterol. In order to investigate the relaxation effect of trifolirhizin on ASM, we tested this isolated compound on acetylcholine pre-contracted sensitized murine tracheal rings. […] The maximal relaxation was 85% of the initial contractile tone at a trifolirhzin concentration of 20 μg/ml (FIG. 7A). In parallel studies the β2-AR agonist fenoterol only achieved 25% relaxation even at the highest concentration tested (10^-5 M).

[4] = test system: airway resistance in response to methacholine; test: Airway resistance to nebulized methacholine, forced oscillation technique (Flexivent); format: in vivo, male A/J mice; conditions: nebulized 25 ul of 60 ug/ml, 15 minutes before nebulized methacholine; N=3; FIG. 15
Description: FIG. 15: Airway resistance in male A/J 20 g mice pretreated with nebulization of vehicle (25 ul 0.3% DMSO) or trifolirhizin (25 ul of 60 ug/ml) 15 minutes before nebulized methacholine as measured by the forced oscillation technique (Flexivent, Scireq). N=3.

COc1ccc(-c2coc3cc(O)ccc3c2=O)cc1O [3′,7-dihydroxy-4′-methoxy-isoflavone]
ASM contraction to acetylcholine [1]: had no effect on ASM contraction

C[C@@H]1C[C@H]2[C@@H]3CCC4=CC(=O)C=C[C@]4(C)[C@@]3(F)[C@@H](O)C[C@]2(C)[C@@]1(O)C(=O)CO [Dexamethasone, dexamethasone, reference compound]
acetylcholine-induced ASM contractions ([1]; 10 μM acute pretreatment, FIG. 6D): did not inhibit

O=C1CCC[C@@H]2[C@H]3CCCN4CCC[C@@H](CN12)[C@@H]34 [Matrine]
effect of Indomethacin on the suppressive effect on tracheal contractility [1]: inhibited by Indomethacin | Ach-induced contraction (10-4 M Ach, percent of 60 mM KCL) [1]: inhibited Ach-induced contraction | relative potency among the matrine type alkaloids [1]: most potent; also recorded: more effective than Oxymatrine | toxicity to tracheal tissue (response to KCL 90 minutes after washout) [2]: did not exhibit toxicity to tracheal tissue

O=C1CCC[C@@H]2[C@H]3CCC[N+]4([O-])CCC[C@@H](CN12)[C@@H]34 (stereo partly shown) [Oxymatrine]
effect of Indomethacin on the suppressive effect on tracheal contractility [1]: inhibited by Indomethacin | Ach-induced contraction (10-4 M Ach, percent of 60 mM KCL) [1]: inhibited Ach-induced contraction | relative potency among the matrine type alkaloids [1]: weakest inhibitor of contraction

O=C1C=CC[C@@H]2[C@H]3CCCN4CCC[C@@H](CN12)[C@@H]34 [Sophocarpine]
effect of Indomethacin on the suppressive effect on tracheal contractility [1]: inhibited by Indomethacin | Ach-induced contraction (10-4 M Ach, percent of 60 mM KCL) [1]: inhibited Ach-induced contraction | relative potency among the matrine type alkaloids [1]: more effective than Oxymatrine

CC(Cc1ccc(O)cc1)NCC(O)c1cc(O)cc(O)c1 (stereo not shown) [fenoterol, fenoterol hydrobromide, reference compound]
effect of co-incubation with β2-AR antagonist ICI 118,551 on relaxation [3]: completely blocked | relaxation achieved ([3]; highest concentration tested (10^-5 M), parallel studies, FIG. 7B): 25% | time course of relaxation effect ([3]; increasing time of incubation): slowly lost its effect

OC[C@H]1O[C@@H](Oc2ccc3c(c2)OC[C@H]2c4cc5c(cc4O[C@@H]32)OCO5)[C@H](O)[C@@H](O)[C@@H]1O [trifolirhizin]
acetylcholine-induced contraction ([1]; concentrations lower than 6.0 μg/ml, FIG. 6B): not at lower concentrations | ASM contraction to acetylcholine [1]: significantly inhibited acetylcholine-induced contraction | effect of β2-AR antagonist ICI 118,551 on the compound's blockade of acetylcholine contraction ([1]; trifolirhizin 6.0 μg/ml with ICI 118,551 150 μM, 30 min preincubation, FIG. 6C): had no effect; also recorded: did not block the effect | maximal relaxation (of the initial contractile tone) ([3]; 20 μg/ml, 10^-5 M acetylcholine pre-contraction, FIG. 7A): 85% | effect of co-incubation with β2-AR antagonist ICI 118,551 on relaxation [3]: without effect | relaxation of pre-contracted tracheal rings, dose dependence ([3]; rings stimulated by 10^-5 M acetylcholine, FIG. 7A): dose-dependent manner | airway resistance in response to methacholine [4]: significantly attenuated increased airway resistance
